Data taken from US4409210A, “Antibiotic compound” (priority 1982, dated 1983).
In brackets after ≈: the same amount, converted by molar mass. Like-named read-outs stand apart in the source and are kept apart here.

Columns and labels:
[1] = system: Staphylococcus aureus A20610; assay: MIC, serial two-fold dilution method (aerobic); type: cell-based
[2] = system: Neisseria gonorrhoeae A15112; assay: MIC, serial two-fold dilution method (aerobic); type: cell-based; conditions: Neisseria gonorrhoeae, A15112, read-out: minimum inhibitory concentration (MIC)
[3] = system: Haemophilus influenzae A9729; assay: MIC, serial two-fold dilution method (aerobic); type: cell-based; conditions: Haemophilus influenzae, A9729, read-out: minimum inhibitory concentration (MIC)
[4] = system: Clostridium ramosum A21970; assay: MIC, serial two-fold dilution method (anaerobic); type: cell-based; conditions: Thomasclavelia ramosa
[5] = system: Bacteroides fragilis A20928-1; assay: MIC, serial two-fold dilution method (anaerobic); type: cell-based
[6] = system: Staphylococcus aureus #193; assay: MIC, serial two-fold dilution method (aerobic); type: cell-based; conditions: read-out: minimum inhibitory concentration (MIC)
[7] = system: Propionibacterium acnes A21933; assay: MIC, serial two-fold dilution method (anaerobic); type: cell-based; conditions: Cutibacterium acnes
[8] = system: Staphylococcus aureus A9748; assay: MIC, serial two-fold dilution method (aerobic); type: cell-based
[9] = system: Staphylococcus aureus 209P; assay: MIC, serial two-fold dilution method (aerobic); type: cell-based; conditions: read-out: minimum inhibitory concentration (MIC)
Sarcina lutea PCI-1001 = assay: MIC, serial two-fold dilution method (aerobic); type: cell-based; conditions: Micrococcus luteus
[10] = system: Clostridium septicum A21869; assay: MIC, serial two-fold dilution method (anaerobic); type: cell-based
Protocol: (§1) The minimum inhibitory concentration (MIC) of Bu-2517 was determined for a variety of aerobic and anaerobic bacteria by the serial two-fold dilution method using a multi-inoculating apparatus. Mueller-Hinton agar was generally used for aerobic bacteria, GC medium (Eiken) for fastidious aerobic organisms such as streptococci, Neisseria and Haemophilus species, and GAM agar medium (Nissui) for anaerobic bacteria. The inoculum size was adjusted to 10^6 CFU/ml for streptococci, Neisseria and Haemophilus species, 10^4 for other aerobic bacteria and 10^7 -10^8 for all anaerobic organisms. Amphomycin, ampicillin, chloramphenicol, clindamycin, erthromycin, kanamycin and vancomycin were used as reference antibiotics.

[11] = system: Clostridium difficile A21675; assay: MIC, serial two-fold dilution method (anaerobic); type: cell-based; conditions: Clostridioides difficile
Protocol: as §1

[12] = system: Clostridium chauvoei A9561; assay: MIC, serial two-fold dilution method (anaerobic); type: cell-based
Protocol: as §1

[13] = system: Clostridium difficile A21972; assay: MIC, serial two-fold dilution method (anaerobic); type: cell-based; conditions: Clostridioides difficile
Protocol: as §1

[14] = system: Bacillus anthracis IID-115; assay: microbe, parasite or virus in culture; type: cell-based; conditions: Bacillus anthracis, IID115, read-out: minimum inhibitory concentration (MIC)
[15] = system: Staphylococcus aureus A20394; assay: MIC, serial two-fold dilution method (aerobic); type: cell-based
[16] = system: Bacteroides fragilis CUH-24; assay: MIC, serial two-fold dilution method (anaerobic); type: cell-based
[17] = system: Bacillus subtilis ATCC 6633; assay: MIC, serial two-fold dilution method (aerobic); type: cell-based
[18] = system: Clostridium cylindrosporum A9562; assay: MIC, serial two-fold dilution method (anaerobic); type: cell-based
[19] = system: Veillonella alcalescens A21914-1; assay: MIC, serial two-fold dilution method (anaerobic); type: cell-based; conditions: Veillonella parvula
[20] = system: Bacteroides fragilis CUH-9; assay: MIC, serial two-fold dilution method (anaerobic); type: cell-based
[21] = system: Fusobacterium varium ATCC 8501; assay: MIC, serial two-fold dilution method (anaerobic); type: cell-based
[22] = system: Clostridium perfringens A22787; assay: microbe, parasite or virus in culture; type: cell-based; conditions: Clostridium perfringens, A22787, read-out: minimum inhibitory concentration (MIC)
[23] = system: Bacteroides fragilis A20926; assay: MIC, serial two-fold dilution method (anaerobic); type: cell-based
Strain G393-B445 = assay: Antibiotic sensitivity, paper disc-agar diffusion method; type: cell-based, Empedobacter sp.; design: key: S (sensitive); R (resistant); I (intermediate); conditions: nutrient agar, 2 day's incubation at 28° C., Difco discs, amount/disc per antibiotic
E. coli NIHJ = assay: as above; type: cell-based; design: key: S (sensitive); R (resistant); I (intermediate); conditions: nutrient agar, 2 day's incubation at 28° C., Difco discs, amount/disc per antibiotic
[24] = Staphylococcus aureus A20610, Mueller-Hinton agar, inoculum 10^4, read-out: minimum inhibitory concentration (MIC)
[25] = Clostridium ramosum A21970, GAM agar medium, inoculum 10^7-10^8, read-out: minimum inhibitory concentration (MIC)
[26] = A209281, Bacteroides fragilis A20928-1, GAM agar medium, inoculum 10^7-10^8, read-out: minimum inhibitory concentration (MIC)
[27] = Staphylococcus aureus #193, Mueller-Hinton agar, inoculum 10^4
[28] = Propionibacterium acnes A21933, GAM agar medium, inoculum 10^7-10^8, read-out: minimum inhibitory concentration (MIC)
[29] = Staphylococcus aureus A9748, Mueller-Hinton agar, inoculum 10^4, read-out: minimum inhibitory concentration (MIC)
[30] = Staphylococcus aureus 209P, Mueller-Hinton agar, inoculum 10^4
[31] = PCI1001, Sarcina lutea PCI-1001, Mueller-Hinton agar, inoculum 10^4, read-out: minimum inhibitory concentration (MIC)
[32] = Clostridium septicum A21869, GAM agar medium, inoculum 10^7-10^8, read-out: minimum inhibitory concentration (MIC)
[33] = Clostridium difficile A21675, GAM agar medium, inoculum 10^7-10^8, read-out: minimum inhibitory concentration (MIC)
[34] = Clostridium chauvoei A9561, GAM agar medium, inoculum 10^7-10^8, read-out: minimum inhibitory concentration (MIC)
[35] = Clostridium difficile A21972, GAM agar medium, inoculum 10^7-10^8, read-out: minimum inhibitory concentration (MIC)
[36] = Staphylococcus aureus A20394, Mueller-Hinton agar, inoculum 10^4, read-out: minimum inhibitory concentration (MIC)
[37] = CUH24, Bacteroides fragilis CUH-24, GAM agar medium, inoculum 10^7-10^8, read-out: minimum inhibitory concentration (MIC)
[38] = ATCC6633, Bacillus subtilis ATCC 6633, Mueller-Hinton agar, inoculum 10^4, read-out: minimum inhibitory concentration (MIC)
[39] = Clostridium cylindrosporum A9562, GAM agar medium, inoculum 10^7-10^8, read-out: minimum inhibitory concentration (MIC)
[40] = A219141, Veillonella alcalescens A21914-1, GAM agar medium, inoculum 10^7-10^8, read-out: minimum inhibitory concentration (MIC)
[41] = CUH9, Bacteroides fragilis CUH-9, GAM agar medium, inoculum 10^7-10^8, read-out: minimum inhibitory concentration (MIC)
[42] = ATCC8501, Fusobacterium varium ATCC 8501, GAM agar medium, inoculum 10^7-10^8, read-out: minimum inhibitory concentration (MIC)
[43] = Bacteroides fragilis A20926, GAM agar medium, inoculum 10^7-10^8, read-out: minimum inhibitory concentration (MIC)

## CN[C@H](CC(C)C)C(=O)N[C@H]1C(=O)N[C@@H](CC(N)=O)C(=O)N[C@H]2C(=O)N[C@H]3C(=O)N[C@H](C(=O)N[C@H](C(=O)O)c4cc(O)cc(O)c4-c4cc3ccc4O)[C@H](O)c3ccc(c(Cl)c3)Oc3cc2cc(c3O[C@@H]2O[C@H](CO)[C@@H](O)[C@H](O)[C@H]2O[C@H]2C[C@](C)(N)[C@H](O)[C@H](C)O2)Oc2ccc(cc2Cl)[C@H]1O [Vancomycin]
[1]; Staphylococcus aureus, A20610, read-out: minimum inhibitory concentration (MIC)
  MIC: 0.8 mg/L (≈ 0.552 µM)
[2]
  MIC: > 100 mg/L
[3]
  MIC: > 100 mg/L
[4]; A21970, read-out: minimum inhibitory concentration (MIC)
  MIC: > 100 mg/L
[5]; Bacteroides fragilis, A209281, read-out: minimum inhibitory concentration (MIC)
  MIC: 3.1 mg/L (≈ 2.14 µM)
[6]; Staphylococcus aureus
  MIC: 0.8 mg/L (≈ 0.552 µM)
[7]; A21933, read-out: minimum inhibitory concentration (MIC)
  MIC: 0.8 mg/L (≈ 0.552 µM)
[8]; Staphylococcus aureus, A9748, read-out: minimum inhibitory concentration (MIC)
  MIC: 0.8 mg/L (≈ 0.552 µM)
[9]; Staphylococcus aureus, 209P
  MIC: 0.4 mg/L (≈ 0.276 µM)
Sarcina lutea PCI-1001; PCI1001, read-out: minimum inhibitory concentration (MIC)
  MIC: 0.4 mg/L (≈ 0.276 µM)
[10]; Clostridium septicum, A21869, read-out: minimum inhibitory concentration (MIC)
  MIC: 0.8 mg/L (≈ 0.552 µM)
[11]; A21675, read-out: minimum inhibitory concentration (MIC)
  MIC: 0.8 mg/L (≈ 0.552 µM)
[12]; Clostridium chauvoei, A9561, read-out: minimum inhibitory concentration (MIC)
  MIC: 0.8 mg/L (≈ 0.552 µM)
[13]; A21972, read-out: minimum inhibitory concentration (MIC)
  MIC: 1.6 mg/L (≈ 1.1 µM)
[14]
  MIC: 1.6 mg/L (≈ 1.1 µM)
[15]; Staphylococcus aureus, A20394, read-out: minimum inhibitory concentration (MIC)
  MIC: 0.4 mg/L (≈ 0.276 µM)
[16]; Bacteroides fragilis, CUH24, read-out: minimum inhibitory concentration (MIC)
  MIC: 25 mg/L (≈ 17.3 µM)
[17]; Bacillus subtilis, ATCC6633, read-out: minimum inhibitory concentration (MIC)
  MIC: 0.1 mg/L (≈ 0.069 µM)
[18]; Clostridium cylindrosporum, A9562, read-out: minimum inhibitory concentration (MIC)
  MIC: 0.8 mg/L (≈ 0.552 µM)
[19]; A219141, read-out: minimum inhibitory concentration (MIC)
  MIC: 1.6 mg/L (≈ 1.1 µM)
[20]; Bacteroides fragilis, CUH9, read-out: minimum inhibitory concentration (MIC)
  MIC: 50 mg/L (≈ 34.5 µM)
[21]; Fusobacterium varium, ATCC8501, read-out: minimum inhibitory concentration (MIC)
  MIC: 6.3 mg/L (≈ 4.35 µM)
[22]
  MIC: 0.8 mg/L (≈ 0.552 µM)
[23]; Bacteroides fragilis, A20926, read-out: minimum inhibitory concentration (MIC)
  MIC: 3.1 mg/L (≈ 2.14 µM)

## CC[C@H]1OC(=O)[C@H](C)[C@@H](O[C@H]2C[C@@](C)(OC)[C@@H](O)[C@H](C)O2)[C@H](C)[C@@H](O[C@@H]2O[C@H](C)C[C@H](N(C)C)[C@H]2O)[C@](C)(O)C[C@@H](C)C(=O)[C@H](C)[C@@H](O)[C@]1(C)O [Erythromycin]
[1]; [24]
  MIC: > 100 mg/L
[4]; [25]
  MIC: 0.1 mg/L (≈ 0.136 µM)
[5]; [26]
  MIC: 0.013 mg/L (≈ 0.0177 µM)
[6]; [27]
  MIC: 0.4 mg/L (≈ 0.545 µM)
[7]; [28]
  MIC: 1.6 mg/L (≈ 2.18 µM)
[8]; [29]
  MIC: 0.4 mg/L (≈ 0.545 µM)
[9]; [30]
  MIC: 0.1 mg/L (≈ 0.136 µM)
Sarcina lutea PCI-1001; [31]
  MIC: < 0.05 mg/L
Strain G393-B445
  Sensitivity Strain G393-B445: S
[10]; [32]
  MIC: 0.8 mg/L (≈ 1.09 µM)
[11]; [33]
  MIC: > 100 mg/L
[12]; [34]
  MIC: 1.6 mg/L (≈ 2.18 µM)
[13]; [35]
  MIC: 3.1 mg/L (≈ 4.22 µM)
[14]
  MIC: 0.4 mg/L (≈ 0.545 µM)
[15]; [36]
  MIC: 0.2 mg/L (≈ 0.273 µM)
E. coli NIHJ
  Sensitivity E. coli NIHJ: R
[16]; [37]
  MIC: > 100 mg/L
[17]; [38]
  MIC: < 0.05 mg/L
[18]; [39]
  MIC: 3.1 mg/L (≈ 4.22 µM)
[19]; [40]
  MIC: 0.2 mg/L (≈ 0.273 µM)
[20]; [41]
  MIC: 6.3 mg/L (≈ 8.58 µM)
[21]; [42]
  MIC: 1.6 mg/L (≈ 2.18 µM)
[22]
  MIC: > 100 mg/L
[23]; [43]
  MIC: < 0.05 mg/L

## O=C(N[C@H](CO)[C@H](O)c1ccc([N+](=O)[O-])cc1)C(Cl)Cl [Chloramphenicol]
[1]; [24]
  MIC: 50 mg/L (≈ 155 µM)
[4]; [25]
  MIC: 6.3 mg/L (≈ 19.5 µM)
[5]; [26]
  MIC: 3.1 mg/L (≈ 9.59 µM)
[6]; [27]
  MIC: 3.1 mg/L (≈ 9.59 µM)
[7]; [28]
  MIC: 3.1 mg/L (≈ 9.59 µM)
[8]; [29]
  MIC: 6.3 mg/L (≈ 19.5 µM)
[9]; [30]
  MIC: 3.1 mg/L (≈ 9.59 µM)
Sarcina lutea PCI-1001; [31]
  MIC: 1.6 mg/L (≈ 4.95 µM)
Strain G393-B445
  Sensitivity Strain G393-B445: S
[10]; [32]
  MIC: 6.3 mg/L (≈ 19.5 µM)
[11]; [33]
  MIC: 3.1 mg/L (≈ 9.59 µM)
[12]; [34]
  MIC: 6.3 mg/L (≈ 19.5 µM)
[13]; [35]
  MIC: 3.1 mg/L (≈ 9.59 µM)
[14]
  MIC: 3.1 mg/L (≈ 9.59 µM)
[15]; [36]
  MIC: 50 mg/L (≈ 155 µM)
E. coli NIHJ
  Sensitivity E. coli NIHJ: S
[16]; [37]
  MIC: 1.6 mg/L (≈ 4.95 µM)
[17]; [38]
  MIC: 3.1 mg/L (≈ 9.59 µM)
[18]; [39]
  MIC: 6.3 mg/L (≈ 19.5 µM)
[19]; [40]
  MIC: 1.6 mg/L (≈ 4.95 µM)
[20]; [41]
  MIC: 1.6 mg/L (≈ 4.95 µM)
[21]; [42]
  MIC: 6.3 mg/L (≈ 19.5 µM)
[22]
  MIC: 6.3 mg/L (≈ 19.5 µM)
[23]; [43]
  MIC: 3.1 mg/L (≈ 9.59 µM)
